Results on 6 molecules are retold here after PMC12749748, “Chemically-induced degradation of the endoplasmic-reticulum stress sensor IRE1 by a VHL-recruiting chimera” (Nature Communications, 2025).

In one test the test system is AMO1 cells. Kind of test: Incucyte cell confluency, AMO1 cells. The test is classed as cell-based. The method, then: (§1) For non-adherent AMO1, KMS27, and OPM2 cells, cells were plated at 5000 cells/well in ultra-low attachment (ULA) 96-well plates (Costar, #7007) and centrifuged at 600 × g for 5 min for spheroid formation. For adherent U2OS and Colo201 cells, 2000 cells/well were seeded in a clear flat-bottom 96-well plate (Costar, #3595). Treatments were added at the time of cell seeding, and cells were cultured in complete RPMI media to a final volume of 200 µL/well. Cultures were maintained at 37 °C throughout the duration of the experiment. Cell confluency was tracked using the Incucyte live-cell imaging system (Sartorius S3). Picture frames were captured every 4 h with a 4× objective, and cell confluency (%) from the total well area as a function of time was calculated using the Incucyte software (version 2023 A Rev2).

In a further test the test system is KMS27 cells. The experiment in a line: Incucyte cell confluency, KMS27 cells. The test is classed as cell-based. The settings on record: KMS27 shIRE1 cells, titration. As for the experimental part:
as §1

The next test has as its system OPM2 cells. The experiment in a line: Incucyte cell confluency, OPM2 cells. The test is classed as cell-based. The settings on record: OPM2 shIRE1 cells, titration. As for the experimental part:
as §1

Test [1] relates to IRE1-dependent or -independent cell lines. Kind of test: Incucyte, IRE1-dependent or -independent cell lines together. Type of test: cell-based. The method, then:
as §1

The next test concerns the target IRE1 (Homo sapiens, UniProt O75460). The experiment in a line: Endogenous IRE1 protein levels in AMO1 or H929 cells (immunoblot). Type of test: cell-based. Set-up: Immunoblot (IB) analysis of endogenous IRE1 depletion in AMO1 cells; endogenous in cells; host or cells: AMO1, KMS27, H929. The conditions noted are these: 1 µM, 4 hr. As for the experimental part: (§2) Cells were lysed in buffer containing 20 mM HEPES 7.2, 150 mM NaCl, and 1% Triton X-100, supplemented with fresh protease and phosphatase inhibitors (Invitrogen, #78440), cleared by centrifugation at 12,000 × g for 10 min, and analyzed by BCA protein assay (Thermo Fisher Scientific, #23227). Equal protein amounts were loaded, separated by SDS-PAGE, electrotransferred to nitrocellulose membranes using the iBLOT2 system (Invitrogen), and blocked in 5% nonfat milk solution for 60 min. Membranes were probed with primary antibodies at 1:1000 dilution in 5% milk at 4 °C overnight. Signal was detected using appropriate horseradish peroxidase (HRP)-conjugated secondary antibodies at 1:10,000 in 5% milk at room temperature for 1–2 h. Bands were visualized by the Azure 600 western blot imaging system (Azure Biosystems). For in vitro ubiquitination assays performed with Me-Ub, bands were visualized by the Odyssey CLx Imager (LI‑COR) after incubating the blots with the IRDye 800CW (LI-COR) secondary antibodies at 1:10,000 in Intercept Blocking Buffer (LI-COR) at room temperature for 1–2 h.
For orientation: Immunoblotting shows a protein as a band on a membrane.

Test [2] has as its target T1, IRE1:VHL (Homo sapiens, UniProt O75460+P40337). The experiment in a line: co-IP of endogenous VHL with endogenous IRE1 from AMO1 cells. The test is classed as cell-based. Set-up: co-IP of endogenous VHL with endogenous IRE1 from AMO1 cells; endogenous in cells; host or cells: AMO1. The settings on record: G5758 in excess of G6374. As for the experimental part:
as §2
IRE1.LD antibodies were conjugated to agarose beads using the AminoLink® Plus Immobilization Kit (Thermo Fisher, #44894). […]

The target in test [3] is T1, IRE1:VHL. Kind of test: NanoBRET IRE1:VHL interaction, WT IRE1, HEK293T cells. Set-up: N2731 (HaloTag-VHL); host or cells: HEK293T. The test is classed as cell-based. The conditions noted are these: HEK293T, 1 µM G6374 and a titration of G5758. The method, then: 8 × 10^5 293T cells per well were seeded in 6-well plates (Costar, #3516) and incubated at 37 °C, 5% CO2 for 6 h. A mixture of 0.2 µg ERN1 (IRE1)-NanoLuc Fusion Vector (Promega, NV1321), 2 µg HaloTag-VHL Fusion Vector (Promega, N2731), 6 µl FuGENE HD Transfection Reagent (Promega, E2311), and 100 µL Opti-MEM I reduced serum medium (Gibco, #31985062) per well was incubated at room temperature for 20 min before adding to cells. For expression of IRE1 mutants, site-directed mutagenesis was performed using the ERN1-NanoLuc Fusion Vector as the DNA template, and the transfection mixture was prepared in the same way as WT IRE1. After 18 h, cells from 6-well plates were trypsinized, resuspended in Opti-MEM I reduced serum medium, and reseeded into 96-well plates (Costar, #3917), with or without the addition of HaloTag NanoBRET 618 Ligand (Promega, G9801). […] After 2 h of G6374 treatment, NanoBRET Nano-Glo Substrate (Promega, N1571) was added to cells. The 96-well plates were imaged by GloMax Discover Microplate Reader (Promega, GM3000) with the default “BRET: NanoBRET 618” protocol (Donor: 450 BP; Acceptor: 600 LP; Integration: 0.3 s). Data analysis was performed according to the user manual.
Background: In BRET a luciferase serves as donor, and the signal depends on an acceptor being close.

Another test concerns WDR5. Also noted: method as in earlier work. The conditions noted are these: VHL:PROTAC:WDR5; cited from earlier work.
The test system of the next test is BRD4. Also noted: method as in earlier work. The conditions noted are these: VHL:PROTAC:BRD4; cited from earlier work.
The target in a further test is VCB (VHL:EloC:EloB) (Homo sapiens, UniProt P40337). Kind of test: Surface plasmon resonance, binary interaction with VCB. The test is classed as binding. The settings on record: SPR, immobilised VCB, 20 °C, 1 to 1 kinetic model. As for the experimental part: All SPR experiments in this paper were recorded on a Biacore S200 instrument; all protein captures and data collection were at 20 °C.
For binary interactions with G6374: a Xantec SAHC 200 M (streptavidin) chip was inserted into the instrument and primed into running buffer [50 mM HEPES (pH 7.4), 150 mM NaCl, 0.001% Tween 20, 0.2% PEG3350, 0.25 mM TCEP, and 2% DMSO]. Biotinylated human IRE1.KR protein was captured on FC2 to 2-4000 RU, biotinylated VHL in complex with Elongin B (VHL/EloB) was captured on FC4 to 1-2000 RU, data were collected, and all referenced to FC1. Affinity for G6374 was measured using a titration series, injected from low to high with an 8-point, 2-fold dilution dose response with a top concentration of 0.5 μM in both single cycle (single cycle kinetics (SCK)) and multi cycle kinetics (MCK) formats. For MCK experiments, an association time of 45 s and a dissociation time of 200 s with a flow rate of 50 μL/min. For SCK experiments, an association time of 45 s and a dissociation time of 2000 s with a flow rate of 50 μL/min were used. All data were analyzed using Insight software (Cytiva) using a 1 to 1 kinetic binding model.
For orientation: In SPR one partner is held on a chip, and binding of the other changes the refractive index at the surface.

Consider `Cc1ncsc1-c1ccc(CNC(=O)[C@@H]2C[C@H](O)CN2C(=O)[C@@H](NC(=O)CCCCN2CCN(C3CCC(Nc4ncc5ccc(=O)n(C(C)C)c5n4)CC3)CC2)C(C)(C)C)cc1` (some centres unmarked) [G2642], for which the “growth inhibition (cell confluency)” value with AMO1 cells (AMO1 shIRE1 cells, titration) is “neither its epimer control G2642, nor the VHL ligand VH032, induced a concentration-dependent growth inhibition”; in the test on KMS27 cells it was “neither its epimer control G2642, nor the VHL ligand VH032, induced a concentration-dependent growth inhibition”; in the test with OPM2 cells it was “neither its epimer control G2642, nor the VHL ligand VH032, induced a concentration-dependent growth inhibition”. For the same molecule, the anti-proliferative activity entry in [1] was “no anti-proliferative activity”. Further, at IRE1, the “degradation of cellular IRE1” value is listed as “does not degrade cellular IRE1”.

Take `O=S(=O)(Cc1ccccc1)Nc1c(F)cc(Oc2ncccc2-c2ccnc(N[C@@H]3CNC[C@@H](F)C3)n2)c(F)c1F` [G5758, reference compound]: the “competition with G6374-induced IRE1:VHL association and IRE1 depletion (co-IP)” value on IRE1:VHL [2] was “attenuated the induced association between IRE1 and VHL as well as the depletion of IRE1”. Also, the “disruption of G6374-induced IRE1:VHL interaction (NanoBRET)” value on IRE1:VHL [3] is “could disrupt G6374-induced interaction between IRE1 and VHL”.

For `Cc1ncsc1-c1ccc([C@H](C)NC(=O)[C@@H]2C[C@@H](O)CN2C(=O)[C@@H](NC(=O)CNC(=O)c2ccc(F)c(-c3ccc(N4C[C@@H](C)N(C)[C@@H](C)C4)c(NC(=O)c4c[nH]c(=O)cc4C(F)(F)F)c3)c2)C(C)(C)C)cc1` [MS67], in the test with WDR5, the DC50 was 3.7 nM and the Dmax is given as 94%.

In the case of `Cc1ncsc1-c1ccc(CNC(=O)[C@@H]2C[C@@H](O)CN2C(=O)[C@@H](NC(=O)COCCOCCOCCNC(=O)C[C@@H]2N=C(c3ccc(Cl)cc3)c3c(sc(C)c3C)-n3c(C)nnc32)C(C)(C)C)cc1` [MZ1], in the test on BRD4, the DC50 was […] and the Dmax was […].

For the molecule `CC(=O)c1cnc2ccc(-c3cc(Cl)c(O)c(Cl)c3)nc2c1N[C@H]1CC[C@H](CN(C)C)CC1` [OTSSP167, reference compound], the “proliferation of AMO1 cells” value with AMO1 cells (at 3X the IC50 of OTSSP167) is given as “did not”.

Regarding `CC(=O)N[C@H](C(=O)N1C[C@H](O)C[C@H]1C(=O)NCc1ccc(-c2scnc2C)cc1)C(C)(C)C` [VH032, reference compound], at VCB (VHL:EloC:EloB), the ka is 550000 M⁻¹ s⁻¹ and the kd is 0.13 s⁻¹.
